The supplement of paper PMC10307832

Legend:
Test in all cases: relative viability (nuclei count vs DMSO), 5 days (fraction); higher = more cells survive
LOU-NH91 = system: LOU-NH91
Summary of the method: (§1)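 Relative viability equals treated-well nuclei counts divided by vehicle-well nuclei counts. Counts came from 4× images of lung cancer cell lines grown in 1536-well plates for 5 days after pin-tool dosing on the day after seeding. Dosing used one drug alone or a fixed anchor-drug dose plus five library-drug doses (not always all listed) in √10 steps, and values are medians of duplicate plates.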

ABC-1 = system: ABC-1
Summary of the method: as §1

NCI-H2170 = system: NCI-H2170
Summary of the method: as §1

NCI-H2085 = system: NCI-H2085
Summary of the method: as §1

NCI-H2023 = system: NCI-H2023
Summary of the method: as §1

LCLC-97TM1 = system: LCLC-97TM1
Summary of the method: as §1

NCI-H23 = system: NCI-H23
Summary of the method: as §1

NCI-H2342 = system: NCI-H2342
Summary of the method: as §1

NCI-H2009 = system: NCI-H2009
Summary of the method: as §1

NCI-H1437 = system: NCI-H1437
Summary of the method: as §1

ChaGo-K-1 = system: ChaGo-K-1
Summary of the method: as §1

NCI-H1623 = system: NCI-H1623
Summary of the method: as §1

NCI-H2405 = system: NCI-H2405
Summary of the method: as §1

UMC-11 = system: UMC-11
Summary of the method: as §1

RERF-LC-KJ = system: RERF-LC-KJ
Summary of the method: as §1

HOP-62 = system: HOP-62
Summary of the method: as §1

NCI-H322M = system: NCI-H322M
Summary of the method: as §1

NCI-H1792 = system: NCI-H1792
Summary of the method: as §1

SK-MES-1 = system: SK-MES-1
Summary of the method: as §1

HCC-78 = system: HCC-78
Summary of the method: as §1

NCI-H727 = system: NCI-H727
Summary of the method: as §1

NCI-H1648 = system: NCI-H1648
Summary of the method: as §1

NCI-H650 = system: NCI-H650
Summary of the method: as §1

NCI-H1355 = system: NCI-H1355
Summary of the method: as §1

NCI-H1755 = system: NCI-H1755
Summary of the method: as §1

CCCCCCCCCCCC1=C(O)C(=O)C=C(O)C1=O [Embelin] + COc1cccc2cc(-c3nc([C@H]4CC[C@H](C(=O)O)CC4)n4ncnc(N)c34)[nH]c12 [OSI-027] (partner 0.5 µM)
relative viability (LOU-NH91; first compound 0.08 µM): 0.691
relative viability (LOU-NH91; first compound 0.8 µM): 0.851
relative viability (LOU-NH91; first compound 2.53 µM): 0.743
relative viability (LOU-NH91; first compound 8 µM): 0.755
relative viability (ABC-1; first compound 0.08 µM): 0.58
relative viability (ABC-1; first compound 0.8 µM): 0.646
relative viability (ABC-1; first compound 2.53 µM): 0.472
relative viability (ABC-1; first compound 8 µM): 0.552
relative viability (NCI-H2170; first compound 0.08 µM): 0.796
relative viability (NCI-H2170; first compound 0.8 µM): 0.733
relative viability (NCI-H2170; first compound 2.53 µM): 0.753
relative viability (NCI-H2170; first compound 8 µM): 0.737
relative viability (NCI-H2085; first compound 0.08 µM): 0.743
relative viability (NCI-H2085; first compound 0.8 µM): 0.84
relative viability (NCI-H2085; first compound 2.53 µM): 0.699
relative viability (NCI-H2085; first compound 8 µM): 0.646
relative viability (NCI-H2023; first compound 0.08 µM): 0.377
relative viability (NCI-H2023; first compound 0.8 µM): 0.468
relative viability (NCI-H2023; first compound 2.53 µM): 0.385
relative viability (NCI-H2023; first compound 8 µM): 0.398
relative viability (LCLC-97TM1; first compound 0.08 µM): 0.376
relative viability (LCLC-97TM1; first compound 0.8 µM): 0.638
relative viability (LCLC-97TM1; first compound 2.53 µM): 0.494
relative viability (LCLC-97TM1; first compound 8 µM): 0.589
relative viability (NCI-H23; first compound 0.08 µM): 0.695
relative viability (NCI-H23; first compound 0.8 µM): 0.672
relative viability (NCI-H23; first compound 2.53 µM): 0.582
relative viability (NCI-H23; first compound 8 µM): 0.562
relative viability (NCI-H2342; first compound 0.08 µM): 0.666
relative viability (NCI-H2342; first compound 0.8 µM): 0.59
relative viability (NCI-H2342; first compound 2.53 µM): 0.676
relative viability (NCI-H2342; first compound 8 µM): 0.68
relative viability (NCI-H2009; first compound 0.08 µM): 0.728
relative viability (NCI-H2009; first compound 0.8 µM): 0.736
relative viability (NCI-H2009; first compound 2.53 µM): 0.492
relative viability (NCI-H2009; first compound 8 µM): 0.594
relative viability (NCI-H1437; first compound 0.08 µM): 0.859
relative viability (NCI-H1437; first compound 0.8 µM): 1.01
relative viability (NCI-H1437; first compound 2.53 µM): 0.934
relative viability (NCI-H1437; first compound 8 µM): 0.822
relative viability (ChaGo-K-1; first compound 0.08 µM): 0.572
relative viability (ChaGo-K-1; first compound 0.8 µM): 0.636
relative viability (ChaGo-K-1; first compound 2.53 µM): 0.699
relative viability (ChaGo-K-1; first compound 8 µM): 0.556
relative viability (NCI-H1623; first compound 0.08 µM): 0.486
relative viability (NCI-H1623; first compound 0.8 µM): 0.41
relative viability (NCI-H1623; first compound 2.53 µM): 0.468
relative viability (NCI-H1623; first compound 8 µM): 0.494
relative viability (NCI-H2405; first compound 0.08 µM): 0.64
relative viability (NCI-H2405; first compound 0.8 µM): 0.665
relative viability (NCI-H2405; first compound 2.53 µM): 0.659
relative viability (NCI-H2405; first compound 8 µM): 0.658
relative viability (UMC-11; first compound 0.08 µM): 0.441
relative viability (UMC-11; first compound 0.8 µM): 0.492
relative viability (UMC-11; first compound 2.53 µM): 0.511
relative viability (UMC-11; first compound 8 µM): 0.51
relative viability (RERF-LC-KJ; first compound 0.08 µM): 0.585
relative viability (RERF-LC-KJ; first compound 0.8 µM): 0.529
relative viability (RERF-LC-KJ; first compound 2.53 µM): 0.545
relative viability (RERF-LC-KJ; first compound 8 µM): 0.494
relative viability (HOP-62; first compound 0.08 µM): 0.88
relative viability (HOP-62; first compound 0.8 µM): 0.922
relative viability (HOP-62; first compound 2.53 µM): 0.931
relative viability (HOP-62; first compound 8 µM): 0.812
relative viability (NCI-H322M; first compound 0.08 µM): 0.523
relative viability (NCI-H322M; first compound 0.8 µM): 0.744
relative viability (NCI-H322M; first compound 2.53 µM): 0.645
relative viability (NCI-H322M; first compound 8 µM): 0.512
relative viability (NCI-H1792; first compound 0.08 µM): 0.746
relative viability (NCI-H1792; first compound 0.8 µM): 0.884
relative viability (NCI-H1792; first compound 2.53 µM): 0.711
relative viability (NCI-H1792; first compound 8 µM): 0.838
relative viability (SK-MES-1; first compound 0.08 µM): 0.648
relative viability (SK-MES-1; first compound 0.8 µM): 0.66
relative viability (SK-MES-1; first compound 2.53 µM): 0.572
relative viability (SK-MES-1; first compound 8 µM): 0.521
relative viability (HCC-78; first compound 0.08 µM): 0.371
relative viability (HCC-78; first compound 0.8 µM): 0.369
relative viability (HCC-78; first compound 2.53 µM): 0.343
relative viability (HCC-78; first compound 8 µM): 0.41
relative viability (NCI-H727; first compound 0.08 µM): 0.659
relative viability (NCI-H727; first compound 0.8 µM): 0.79
relative viability (NCI-H727; first compound 2.53 µM): 0.494
relative viability (NCI-H727; first compound 8 µM): 0.709
relative viability (NCI-H1648; first compound 0.08 µM): 0.263
relative viability (NCI-H1648; first compound 0.8 µM): 0.293
relative viability (NCI-H1648; first compound 2.53 µM): 0.248
relative viability (NCI-H1648; first compound 8 µM): 0.278
relative viability (NCI-H650; first compound 0.08 µM): 0.421
relative viability (NCI-H650; first compound 0.8 µM): 0.623
relative viability (NCI-H650; first compound 2.53 µM): 0.388
relative viability (NCI-H650; first compound 8 µM): 0.549
relative viability (NCI-H1355; first compound 0.08 µM): 0.445
relative viability (NCI-H1355; first compound 0.8 µM): 0.559
relative viability (NCI-H1355; first compound 2.53 µM): 0.422
relative viability (NCI-H1355; first compound 8 µM): 0.279
relative viability (NCI-H1755; first compound 0.08 µM): 0.829
relative viability (NCI-H1755; first compound 0.8 µM): 0.709
relative viability (NCI-H1755; first compound 2.53 µM): 0.634
relative viability (NCI-H1755; first compound 8 µM): 0.691
